From patent US6472435B1, “Anti-tumor agents” (Astrazeneca AB, priority 1998, dated 2002) come the findings set out here.

In assay [1] the test system is spheroidal aggregates of EMT6 murine breast cancer cells. Nature of the assay: Test (c): growth inhibition of spheroidal aggregates of EMT6 murine breast cancer cells. It counts as cell-based. The following applies: Mus musculus, 2 hours treatment, stasis of spheroid growth over 2-3 weeks, read-out: stasis ED50. The protocol:
(c) An in vitro assay which determines the ability of a test compound to inhibit the growth in an oxygenated culture medium of spheroidal aggregates (˜400 microns in diameter) of EMT6 murine breast cancer cells. As the oxygen diffusion distance through tissue is approximately 120-150 microns, such spheroids have a chronically hypoxic central population of cells and a well oxygenated outer layer of cells. The multicellular spheroids were treated with test compounds for 2 hours as a well oxygenated suspension culture. The spheroids were subsequently washed free of test compound and selected spheroids were transferred to static culture so that the effect of treatment on volume growth could be measured. […]
EMT6 murine breast cells (obtained from P. R. Twentyman, MRC Oncology and Radiotherapeutics Unit, Cambridge, UK) were harvested from exponentially growing monolayer cultures and approximately 1×10^6 cells were used to inoculate a 500 ml spinner culture vessel containing Eagles minimal essential medium (200 ml; supplemented with 10% foetal calf serum, glutamate, non-essential amino acids, penicillin and streptomycin). […] The area of each spheroid was measured using an image analyser and the 24-well plates were transferred to a CO2 incubator at 37° C. The spheroids were then re-measured every 2-3 days for up to 21 days, with fresh culture medium (250 μl) being added to each well every 3 days. […]

For assay [2], the system named is T18 murine breast tumours. The experiment in a line: Test (d): in vivo growth delay of T18 murine breast tumours in Balb/c mice. The following applies: single bolus dose of 20 mg/kg intraperitoneally. From the text:
(d) An in vivo assay in a group of Balb/c mice which determines the ability of a test compound to delay the growth of T18 murine breast tumours. The detailed methodology was as follows:
T18 murine breast tumour tissue was routinely maintained by animal to animal passage. To prepare a batch of tumours for an experiment, tumour tissue was removed from several donor Balb/c mice and placed in saline. Outer tissue was removed and healthy looking regions of tumour were cut into approximately 1 mm^3 pieces and implanted subcutaneously by trocar into the left flanks of anaesthetised female Balb/c mice. After 2-3 weeks, most of the implants had grown to approximately 8 mm in diameter. The animals were placed randomly into groups of 6-7, rejecting any with very large, or small, tumours. Each test compound was dissolved in DMSO and diluted with Cremophor EL followed by saline, to give a 1:1:3 mixture of DMSO, Cremophor EL and saline. Each test compound was administered by the intraperitoneal route as a single bolus dose (0.1 ml per 10 g body weight of each animal). Control animals received vehicle alone. All mice were weighed daily and the dimensions (length and width) of each tumour were measured every 2-3 days using vernier calipers. […] Growth curves were constructed and the effect of treatment was assessed using a growth delay endpoint.

As to `CCCC1=C(C(C)(C)CC(=O)N(C)c2ccc(N(CCCl)CCCl)cc2)C(=O)C=C(C)C1=O` [Example 1, N-{4-[bis(2-chloroethyl)amino]phenyl}-3-(5-methyl-3-propyl-1,4-benzoquinon-2-yl)-3-methyl-N-methylbutyramide], the EC50 in assay [1] is around 4 µM. The growth delay result in assay [2] is “approximately 9 days”.
